One assay addresses T1, TLR7 (Homo sapiens, UniProt Q9NYK1).
T1 construct: human HEK-Blue cells co-expressing a TLR7 or TLR8 gene
T1 sequence (Q9NYK1 27-1049): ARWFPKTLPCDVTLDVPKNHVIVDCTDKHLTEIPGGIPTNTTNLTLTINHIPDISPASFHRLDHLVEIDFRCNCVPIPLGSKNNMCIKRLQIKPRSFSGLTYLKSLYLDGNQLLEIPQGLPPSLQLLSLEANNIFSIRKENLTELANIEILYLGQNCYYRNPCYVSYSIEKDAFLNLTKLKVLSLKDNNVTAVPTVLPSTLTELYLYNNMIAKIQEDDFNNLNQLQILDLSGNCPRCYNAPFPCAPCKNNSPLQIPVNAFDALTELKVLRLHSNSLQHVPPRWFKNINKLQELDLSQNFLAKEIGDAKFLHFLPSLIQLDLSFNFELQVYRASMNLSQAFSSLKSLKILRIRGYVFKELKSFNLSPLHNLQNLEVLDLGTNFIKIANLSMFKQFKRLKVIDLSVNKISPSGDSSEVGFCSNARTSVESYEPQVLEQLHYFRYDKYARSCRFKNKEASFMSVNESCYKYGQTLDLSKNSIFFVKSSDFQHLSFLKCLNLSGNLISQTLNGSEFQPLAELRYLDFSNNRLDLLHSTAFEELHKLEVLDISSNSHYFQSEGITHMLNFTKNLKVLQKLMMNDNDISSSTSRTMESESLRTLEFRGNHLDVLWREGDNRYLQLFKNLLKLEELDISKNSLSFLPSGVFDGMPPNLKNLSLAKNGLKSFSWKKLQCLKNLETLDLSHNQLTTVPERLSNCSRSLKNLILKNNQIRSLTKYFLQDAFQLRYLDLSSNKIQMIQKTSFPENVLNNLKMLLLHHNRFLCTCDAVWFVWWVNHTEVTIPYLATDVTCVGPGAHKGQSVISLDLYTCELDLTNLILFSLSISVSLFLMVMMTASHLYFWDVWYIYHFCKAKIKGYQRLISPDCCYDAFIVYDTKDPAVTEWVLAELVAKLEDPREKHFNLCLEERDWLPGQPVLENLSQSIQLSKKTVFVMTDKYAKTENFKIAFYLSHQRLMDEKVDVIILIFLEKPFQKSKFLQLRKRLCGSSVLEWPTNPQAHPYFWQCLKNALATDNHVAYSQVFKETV
Briefly: In vitro human TLR7 binding reporter assay (HEK-Blue, NF-kB/AP1-inducible SEAP). Format: cell-based. As to conditions: activity range, read-out: TLR7 Agonist EC50. An outline of the steps: (§1)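 Cells are seeded and grown for 24 h. Compounds or DMSO are then added and incubated 18 h at 37 °C. Quanti-Blue is added, and SEAP is read after thirty minutes. EC50 values are normalized, with RLU from 50 μM reference standard setting 100% Ymax.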

The target in a further assay is T2, TLR8 (Homo sapiens, UniProt Q9NR97).
T2 construct: human HEK-Blue cells co-expressing a TLR7 or TLR8 gene
T2 sequence (Q9NR97 27-1041): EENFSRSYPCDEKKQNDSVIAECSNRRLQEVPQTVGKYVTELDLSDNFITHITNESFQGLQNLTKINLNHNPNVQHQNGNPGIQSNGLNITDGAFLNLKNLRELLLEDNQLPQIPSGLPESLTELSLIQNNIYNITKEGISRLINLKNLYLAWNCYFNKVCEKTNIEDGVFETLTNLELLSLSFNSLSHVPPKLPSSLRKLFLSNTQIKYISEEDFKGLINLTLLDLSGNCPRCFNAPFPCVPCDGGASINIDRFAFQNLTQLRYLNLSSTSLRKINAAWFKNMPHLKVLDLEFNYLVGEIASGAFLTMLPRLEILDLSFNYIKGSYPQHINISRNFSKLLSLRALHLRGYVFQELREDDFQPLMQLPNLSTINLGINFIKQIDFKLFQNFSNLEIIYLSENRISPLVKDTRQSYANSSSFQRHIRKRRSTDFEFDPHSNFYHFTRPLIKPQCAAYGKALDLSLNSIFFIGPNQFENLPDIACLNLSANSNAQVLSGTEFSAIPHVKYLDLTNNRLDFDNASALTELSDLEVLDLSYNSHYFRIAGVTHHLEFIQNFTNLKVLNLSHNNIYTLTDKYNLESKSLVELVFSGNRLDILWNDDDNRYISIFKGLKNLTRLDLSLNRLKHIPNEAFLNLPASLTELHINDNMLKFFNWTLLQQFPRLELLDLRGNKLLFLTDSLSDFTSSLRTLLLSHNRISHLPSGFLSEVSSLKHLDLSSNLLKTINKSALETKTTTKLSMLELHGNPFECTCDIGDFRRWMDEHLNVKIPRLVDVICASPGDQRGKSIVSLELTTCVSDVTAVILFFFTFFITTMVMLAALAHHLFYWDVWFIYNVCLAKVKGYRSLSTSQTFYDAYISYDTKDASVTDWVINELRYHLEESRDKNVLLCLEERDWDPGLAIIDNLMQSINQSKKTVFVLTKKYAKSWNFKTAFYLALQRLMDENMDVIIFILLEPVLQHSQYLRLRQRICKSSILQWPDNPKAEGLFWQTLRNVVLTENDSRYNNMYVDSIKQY
Description: In vitro human TLR8 binding reporter assay (HEK-Blue, NF-kB/AP1-inducible SEAP). In kind it is cell-based. As to conditions: activity range, read-out: TLR8 Agonist EC50. The procedure, abridged:
as §1
(In general: Reporter assays use an easily measured gene product as a stand-in for the process of interest.)

The subject of a further assay is THP-1 cells. Description: Measurement of IL-1β production, hTRF protocol (second alternative procedure), THP-1 cells. Format: cell-based, human. Conditions: Homo sapiens, THP-1, IL-1β production, human cells; read-out: NLRP3 hILIB EC50. The procedure, abridged: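 Compounds, dilution series starting at a final 10 μM, were incubated 2 hours at 37° C with PMA-differentiated THP-1 cells (50 ng/ml overnight; 50,000 cells/well, 2% FBS RPMI). Released IL-1β quantified in supernatant by hTRF kit with 1:40 antibody dilution, 4° C overnight, 665/615 nm ratio.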

Structures can show the parent of a compound that is named as a salt. Bounds are passed on as bounds.

In general, EC50 refers to the concentration needed to bring the measured effect to its halfway point.

`Nc1nc2cc(-n3cccn3)ccc2c2[nH]c(CCCO)cc12` [Example 446]: the EC50 is over 100 µM at TLR7, over 100 µM on TLR8 and 200 nM in the assay on THP-1 cells.

With `COc1nc(C(=O)NCCc2cc3c(N)nc4cc(-c5ccn[nH]5)ccc4c3[nH]2)cs1` [Example 447], the values for the EC50 on TLR7, on TLR8 and in the assay on THP-1 cells were over 100 µM, over 100 µM and 380 nM, respectively.

Take `CCn1c(CNC(C)=O)cc2c(N)nc3cc(-n4cccn4)ccc3c21` [Example 448]: the EC50 at TLR7 was over 100 µM; at TLR8 it was over 100 µM; in the assay with THP-1 cells, 1780 nM.

On to `CCn1c(CCCO)cc2c(N)nc3cc(-c4ccn[nH]4)ccc3c21` [Example 449], for which the EC50 was over 100 µM on TLR7, over 100 µM at TLR8 and 700 nM with THP-1 cells.

Turning to `CC(C)(O)Cn1cc2c(n1)c(N)nc1cc(-c3ccn[nH]3)ccc12` [Example 450], the EC50 at TLR7 was over 100 µM; on TLR8, over 100 µM; in the assay with THP-1 cells, 530 nM.

Consider `CC(O)Cn1cc2c(n1)c(N)nc1cc(-c3ccn[nH]3)ccc12` (stereo not drawn) [Example 451], for which the figures for the EC50 on TLR7, on TLR8 and in the assay with THP-1 cells were over 100 µM, over 100 µM and 1260 nM, respectively.

As for `CC(C)(O)CCn1cc2c(n1)c(N)nc1cc(-c3ccn[nH]3)ccc12` [Example 452], the EC50 at TLR7 was over 100 µM; at TLR8 it was over 100 µM; in the assay on THP-1 cells, 400 nM.

As for `CC(CO)n1cc2c(n1)c(N)nc1cc(-c3ccn[nH]3)ccc12` (stereo not drawn) [Example 453], the EC50 was over 100 µM on TLR7, over 100 µM on TLR8 and 310 nM in the assay on THP-1 cells.

For the compound `CC(CCO)n1cc2c(n1)c(N)nc1cc(-c3ccn[nH]3)ccc12` (stereo not drawn) [Example 454], the 50% effective concentration (EC50) at TLR7 was over 100 µM; on TLR8, over 100 µM; in the assay with THP-1 cells it was 370 nM.

Take `Nc1nc2cc(-c3ccn[nH]3)ccc2c2cn(CCO)cc12` [Example 455]: the EC50 at TLR7 is over 100 µM; at TLR8, over 100 µM; in the assay on THP-1 cells, 220 nM.

Take `COCCn1cc2c(N)nc3cc(-c4ccn[nH]4)ccc3c2c1` [Example 456]: the 50% effective concentration (EC50) is over 100 µM on TLR7, over 100 µM at TLR8 and 230 nM in the assay with THP-1 cells.

As to `Nc1nc2cc(-c3cc[nH]n3)ccc2c2n[nH]cc12` [Example 457, 7-(1H-pyrazol-3-yl)-2H-pyrazolo[4,3-c]quinolin-4-amine], the EC50 at TLR7 is over 100 µM; on TLR8 it was over 100 µM; in the assay on THP-1 cells, 160 nM.

With `CN(C)C(=O)Cn1cc2c(N)nc3cc(-c4cc[nH]n4)ccc3c2n1` [Example 458, 2-(4-amino-7-(1H-pyrazol-5-yl)-2H-pyrazolo[4,3-c]quinolin-2-yl)-N,N-dimethylacetamide.TFA], the concentration for a half-maximal effect (EC50) was over 100 µM at TLR7, over 100 µM at TLR8 and 160 nM in the assay with THP-1 cells.

With `CO[C@@H](CO)Cn1cc2c(n1)c(N)nc1cc(-c3cc[nH]n3)ccc12` [Example 459], the figures for the EC50 on TLR7, at TLR8 and in the assay with THP-1 cells were over 100 µM, over 100 µM and 270 nM, respectively.

Regarding `N#CCCCCn1cc2c(N)nc3cc(-c4cc[nH]n4)ccc3c2n1` [Example 460], the EC50 is over 100 µM at TLR7, over 100 µM at TLR8 and 200 nM in the assay on THP-1 cells.

In the case of `CNC(=O)Cn1cc2c(N)nc3cc(-c4cc[nH]n4)ccc3c2n1` [Example 461], the values for the EC50 at TLR7, on TLR8 and with THP-1 cells were over 100 µM, over 100 µM and 250 nM, respectively.

Turning to `NC(=O)CCn1cc2c(N)nc3cc(-c4cc[nH]n4)ccc3c2n1` [Example 462], the concentration for a half-maximal effect (EC50) at TLR7 was over 100 µM; at TLR8 it was over 100 µM; in the assay on THP-1 cells, 220 nM.

As for `CS(=O)(=O)CCn1cc2c(N)nc3cc(-c4cc[nH]n4)ccc3c2n1` [Example 463], the EC50 was over 100 µM on TLR7, over 100 µM on TLR8 and 130 nM in the assay on THP-1 cells.

Consider `N#CC1(Cn2cc3c(N)nc4cc(-c5cc[nH]n5)ccc4c3n2)CC1` [Example 464], for which the half-maximal effective concentration (EC50) on TLR7 is over 100 µM; on TLR8, over 100 µM; in the assay with THP-1 cells, 240 nM.

As to `CCS(=O)(=O)N[C@@H](C)Cn1cc2c(N)nc3cc(-c4cc[nH]n4)ccc3c2n1` [Example 465], the values for the EC50 on TLR7, at TLR8 and with THP-1 cells were over 100 µM, over 100 µM and 1900 nM, respectively.

As for `N#CCC1(Cn2cc3c(N)nc4cc(-c5cc[nH]n5)ccc4c3n2)CC1` [Example 466], the EC50 was over 100 µM on TLR7, over 100 µM at TLR8 and 610 nM with THP-1 cells.

Regarding `Cc1nc(C(=O)NC(C)(C)Cn2cc3c(N)nc4cc(-c5cc[nH]n5)ccc4c3n2)co1` [Example 467], the figures for the concentration for a half-maximal effect (EC50) at TLR7, on TLR8 and with THP-1 cells were over 100 µM, over 100 µM and 940 nM, respectively.

For the compound `Cc1c(CN2CCOCC2)[nH]c2c1c(N)nc1cc(-c3cc[nH]n3)ccc12` [Example 468], the results for the EC50 at TLR7, on TLR8 and with THP-1 cells were over 100 µM, over 100 µM and 1620 nM, respectively.

For `Cc1c(CN[C@H]2CCOC2)[nH]c2c1c(N)nc1cc(-c3cc[nH]n3)ccc12` [Example 469], the figures for the EC50 on TLR7, at TLR8 and with THP-1 cells were over 100 µM, over 100 µM and 840 nM, respectively.

For the compound `CCN(Cc1[nH]c2c(c(N)nc3cc(-c4cc[nH]n4)ccc32)c1C)C(C)=O` [Example 470], the EC50 is over 100 µM at TLR7, over 100 µM at TLR8 and 15400 nM in the assay on THP-1 cells.

`Nc1nc2cc(-c3cc[nH]n3)ccc2c2[nH]c(CN3C[C@@H]4C[C@H]3CO4)cc12` [Example 471]: the EC50 on TLR7 was over 100 µM; at TLR8, over 100 µM; in the assay on THP-1 cells, 750 nM.

Turning to `CO[C@H]1CCN(Cc2cc3c(N)nc4cc(-c5cc[nH]n5)ccc4c3[nH]2)C1` [Example 472], the EC50 is over 100 µM at TLR7, over 100 µM at TLR8 and 230 nM with THP-1 cells.

For the compound `Nc1nc2cc(-c3cc[nH]n3)ccc2c2[nH]c(CN3C[C@H]4CC[C@@H](C3)O4)cc12` [Example 473], the EC50 at TLR7 was over 100 µM; on TLR8, over 100 µM; with THP-1 cells, 490 nM.

For `Nc1nc2cc(-c3cc[nH]n3)ccc2c2[nH]c(CN3[C@@H]4CC[C@H]3COC4)cc12` [Example 474], the results for the EC50 at TLR7, on TLR8 and in the assay on THP-1 cells were over 100 µM, over 100 µM and 450 nM, respectively.

For `CC(=O)N[C@H]1CCN(Cc2cc3c(N)nc4cc(-c5cc[nH]n5)ccc4c3[nH]2)C1` [Example 475], the EC50 is over 100 µM at TLR7, over 100 µM on TLR8 and 1210 nM in the assay on THP-1 cells.

The record behind these values is patent US12037344B2, “NLRP3 modulators” (INNATE TUMOR IMMUNITY, INC., priority 2018, dated 2024).
